From patent US9149038B2, “4-amino-6-(heterocyclic)picolinates and 6-amino-2-(heterocyclic)pyrimidine-4-carboxylates and their use as herbicides” (Dow AgroSciences LLC, priority 2013, dated 2015)
Where two headings read alike, the source gives them in different places.

System: Wheat and Barley and weed species
Assay: Post-Emergent Test III: postemergent herbicidal activity in wheat and barley, visual rating after 21 d and probit GR20/GR50/GR80/GR90 (Tables 9-13)
Type: in vivo
Settings: for pest or weed control at 17.5 g/ha / pest or weed control at 35 g/ha / pest or weed control at 70 g/ha: post-emergence, 504 h
Outline: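 Greenhouse plants (~18/17 °C, 14 h photoperiod) at second–third true leaf stage sprayed at 187 L/ha with a high rate and ½× to 1/16× serial dilutions. Visual injury 0–100% versus solvent-blank controls scored at 21 d; GR20, GR50, GR80 and GR90 derived by probit analysis across rates.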

Nc1c(F)c(-c2ccc(Cl)c3c2OC(F)(F)O3)nc(C(=O)O)c1Cl [Compound 82]
Visual Growth Reduction (%) 21 Days After Application CIRAR (CIRAR Canada thistle (Cirsium arvense), 17.5 g ai/ha): B (85-94)
Visual Growth Reduction (%) 21 Days After Application CIRAR (CIRAR Canada thistle (Cirsium arvense), 35 g ai/ha): B (85-94)
Visual Growth Reduction (%) 21 Days After Application CIRAR (CIRAR Canada thistle (Cirsium arvense), 70 g ai/ha): B (85-94)
GR50 CIRAR (CIRAR Canada thistle (Cirsium arvense), growth reduction of 50%, probit analysis): 1 g ai/ha
GR80 CIRAR (CIRAR Canada thistle (Cirsium arvense), growth reduction of 80%, probit analysis): 10 g ai/ha
GR90 CIRAR (CIRAR Canada thistle (Cirsium arvense), growth reduction of 90%, probit analysis): 34 g ai/ha
Visual Growth Reduction (%) 21 Days After Application GALAP (GALAP cleavers (Galium aparine), 17.5 g ai/ha): D (60-74)
Visual Growth Reduction (%) 21 Days After Application GALAP (GALAP cleavers (Galium aparine), 35 g ai/ha): B (85-94)
Visual Growth Reduction (%) 21 Days After Application GALAP (GALAP cleavers (Galium aparine), 70 g ai/ha): B (85-94)
GR50 GALAP (GALAP cleavers (Galium aparine), growth reduction of 50%, probit analysis): 10 g ai/ha
GR80 GALAP (GALAP cleavers (Galium aparine), growth reduction of 80%, probit analysis): 33 g ai/ha
GR90 GALAP (GALAP cleavers (Galium aparine), growth reduction of 90%, probit analysis): 64 g ai/ha
GR20 HORVS (HORVS barley, spring (crop), growth reduction of 20%, probit analysis): 7 g ai/ha
pest or weed control at 17.5 g/ha (Hordeum vulgare, HORVS barley, spring (crop), 17.5 g ai/ha, read-out: Visual Growth Reduction (%) 21 Days After Application HORVS): 30 to 44%
pest or weed control at 35 g/ha (Hordeum vulgare, HORVS barley, spring (crop), 35 g ai/ha, read-out: Visual Growth Reduction (%) 21 Days After Application HORVS): 60 to 74%
pest or weed control at 70 g/ha (Hordeum vulgare, HORVS barley, spring (crop), 70 g ai/ha, read-out: Visual Growth Reduction (%) 21 Days After Application HORVS): 75 to 84%
Visual Growth Reduction (%) 21 Days After Application KCHSC (KCHSC kochia (Kochia scoparia), 17.5 g ai/ha): D (60-74)
Visual Growth Reduction (%) 21 Days After Application KCHSC (KCHSC kochia (Kochia scoparia), 35 g ai/ha): C (75-84)
Visual Growth Reduction (%) 21 Days After Application KCHSC (KCHSC kochia (Kochia scoparia), 70 g ai/ha): C (75-84)
GR50 KCHSC (KCHSC kochia (Kochia scoparia), growth reduction of 50%, probit analysis): 2 g ai/ha
GR80 KCHSC (KCHSC kochia (Kochia scoparia), growth reduction of 80%, probit analysis): 83 g ai/ha
GR90 KCHSC (KCHSC kochia (Kochia scoparia), growth reduction of 90%, probit analysis): >140 g ai/ha
Visual Growth Reduction (%) 21 Days After Application LAMPU (LAMPU purple deadnettle (Lamium purpureum), 17.5 g ai/ha): G (0-29)
Visual Growth Reduction (%) 21 Days After Application LAMPU (LAMPU purple deadnettle (Lamium purpureum), 35 g ai/ha): G (0-29)
Visual Growth Reduction (%) 21 Days After Application LAMPU (LAMPU purple deadnettle (Lamium purpureum), 70 g ai/ha): F (30-44)
GR50 LAMPU (LAMPU purple deadnettle (Lamium purpureum), growth reduction of 50%, probit analysis): 89 g ai/ha
GR80 LAMPU (LAMPU purple deadnettle (Lamium purpureum), growth reduction of 80%, probit analysis): 131 g ai/ha
GR90 LAMPU (LAMPU purple deadnettle (Lamium purpureum), growth reduction of 90%, probit analysis): >140 g ai/ha
Visual Growth Reduction (%) 21 Days After Application MATCH (MATCH wild chamomile (Matricaria recutita L.), 17.5 g ai/ha): C (75-84)
Visual Growth Reduction (%) 21 Days After Application MATCH (MATCH wild chamomile (Matricaria recutita L.), 35 g ai/ha): C (75-84)
Visual Growth Reduction (%) 21 Days After Application MATCH (MATCH wild chamomile (Matricaria recutita L.), 70 g ai/ha): B (85-94)
GR50 MATCH (MATCH wild chamomile (Matricaria recutita L.), growth reduction of 50%, probit analysis): 18 g ai/ha
GR80 MATCH (MATCH wild chamomile (Matricaria recutita L.), growth reduction of 80%, probit analysis): 35 g ai/ha
GR90 MATCH (MATCH wild chamomile (Matricaria recutita L.), growth reduction of 90%, probit analysis): 49 g ai/ha
Visual Growth Reduction (%) 21 Days After Application PAPRH (PAPRH common poppy (Papaver rhoeas), 17.5 g ai/ha): G (0-29)
Visual Growth Reduction (%) 21 Days After Application PAPRH (PAPRH common poppy (Papaver rhoeas), 35 g ai/ha): G (0-29)
Visual Growth Reduction (%) 21 Days After Application PAPRH (PAPRH common poppy (Papaver rhoeas), 70 g ai/ha): F (30-44)
GR50 PAPRH (PAPRH common poppy (Papaver rhoeas), growth reduction of 50%, probit analysis): 113 g ai/ha
GR80 PAPRH (PAPRH common poppy (Papaver rhoeas), growth reduction of 80%, probit analysis): >140 g ai/ha
GR90 PAPRH (PAPRH common poppy (Papaver rhoeas), growth reduction of 90%, probit analysis): >140 g ai/ha
Visual Growth Reduction (%) 21 Days After Application SASKR (SASKR Russian thistle (Salsola iberica), 17.5 g ai/ha): B (85-94)
Visual Growth Reduction (%) 21 Days After Application SASKR (SASKR Russian thistle (Salsola iberica), 35 g ai/ha): B (85-94)
Visual Growth Reduction (%) 21 Days After Application SASKR (SASKR Russian thistle (Salsola iberica), 70 g ai/ha): B (85-94)
GR50 SASKR (SASKR Russian thistle (Salsola iberica), growth reduction of 50%, probit analysis): 1 g ai/ha
GR80 SASKR (SASKR Russian thistle (Salsola iberica), growth reduction of 80%, probit analysis): 10 g ai/ha
GR90 SASKR (SASKR Russian thistle (Salsola iberica), growth reduction of 90%, probit analysis): 32 g ai/ha
Visual Growth Reduction (%) 21 Days After Application SINAR (SINAR wild mustard (Sinapis arvensis), 17.5 g ai/ha): A (95-100)
Visual Growth Reduction (%) 21 Days After Application SINAR (SINAR wild mustard (Sinapis arvensis), 35 g ai/ha): A (95-100)
Visual Growth Reduction (%) 21 Days After Application SINAR (SINAR wild mustard (Sinapis arvensis), 70 g ai/ha): A (95-100)
GR50 SINAR (SINAR wild mustard (Sinapis arvensis), growth reduction of 50%, probit analysis): 0.02 g ai/ha
GR80 SINAR (SINAR wild mustard (Sinapis arvensis), growth reduction of 80%, probit analysis): 0.5 g ai/ha
GR90 SINAR (SINAR wild mustard (Sinapis arvensis), growth reduction of 90%, probit analysis): 2 g ai/ha
GR20 TRZAS (TRZAS wheat, spring (crop), growth reduction of 20%, probit analysis): 4 g ai/ha
pest or weed control at 17.5 g/ha (Triticum aestivum, TRZAS wheat, spring (crop), 17.5 g ai/ha, read-out: Visual Growth Reduction (%) 21 Days After Application TRZAS): 60 to 74%
pest or weed control at 35 g/ha (Triticum aestivum, TRZAS wheat, spring (crop), 35 g ai/ha, read-out: Visual Growth Reduction (%) 21 Days After Application TRZAS): 60 to 74%
pest or weed control at 70 g/ha (Triticum aestivum, TRZAS wheat, spring (crop), 70 g ai/ha, read-out: Visual Growth Reduction (%) 21 Days After Application TRZAS): 75 to 84%
Visual Growth Reduction (%) 21 Days After Application VERPE (VERPE bird's-eye speedwell (veronica persica), 17.5 g ai/ha): G (0-29)
Visual Growth Reduction (%) 21 Days After Application VERPE (VERPE bird's-eye speedwell (veronica persica), 35 g ai/ha): G (0-29)
Visual Growth Reduction (%) 21 Days After Application VERPE (VERPE bird's-eye speedwell (veronica persica), 70 g ai/ha): G (0-29)
GR50 VERPE (VERPE bird's-eye speedwell (veronica persica), growth reduction of 50%, probit analysis): >140 g ai/ha
GR80 VERPE (VERPE bird's-eye speedwell (veronica persica), growth reduction of 80%, probit analysis): >140 g ai/ha
GR90 VERPE (VERPE bird's-eye speedwell (veronica persica), growth reduction of 90%, probit analysis): >140 g ai/ha
Visual Growth Reduction (%) 21 Days After Application VIOTR (VIOTR wild pansy (Viola tricolor), 17.5 g ai/ha): E (45-59)
Visual Growth Reduction (%) 21 Days After Application VIOTR (VIOTR wild pansy (Viola tricolor), 35 g ai/ha): D (60-74)
Visual Growth Reduction (%) 21 Days After Application VIOTR (VIOTR wild pansy (Viola tricolor), 70 g ai/ha): D (60-74)
GR50 VIOTR (VIOTR wild pansy (Viola tricolor), growth reduction of 50%, probit analysis): 31 g ai/ha
GR80 VIOTR (VIOTR wild pansy (Viola tricolor), growth reduction of 80%, probit analysis): 62 g ai/ha
GR90 VIOTR (VIOTR wild pansy (Viola tricolor), growth reduction of 90%, probit analysis): 90 g ai/ha
